Test results published in the CheMixHub viscosity set.
± gives the uncertainty stated by the source.

Test: xn = mol fraction of the nth substance listed

CCCCCCO + CCCCCC
viscosity (308.15 K, 100 kPa, x1 = 0.2999): 0.4855 ± 0.0062 mPa·s | viscosity (308.15 K, 100 kPa, x1 = 0.3999): 0.6019 ± 0.0072 mPa·s | viscosity (308.15 K, 100 kPa, x1 = 0.5): 0.8102 ± 0.0092 mPa·s | viscosity (308.15 K, 100 kPa, x1 = 0.6002): 1.08 ± 0.012 mPa·s | viscosity (308.15 K, 100 kPa, x1 = 0.7): 1.406 ± 0.015 mPa·s | viscosity (308.15 K, 100 kPa, x1 = 0.8): 1.847 ± 0.021 mPa·s | viscosity (308.15 K, 100 kPa, x1 = 0.9096): 2.566 ± 0.029 mPa·s | viscosity (313 K, 101.33 kPa, x1 = 0.0995): 0.3081 ± 0.012 mPa·s | viscosity (313 K, 101.33 kPa, x1 = 0.1996): 0.3673 ± 0.013 mPa·s | viscosity (313 K, 101.33 kPa, x1 = 0.2995): 0.4576 ± 0.014 mPa·s | viscosity (313 K, 101.33 kPa, x1 = 0.4012): 0.5618 ± 0.015 mPa·s | viscosity (313 K, 101.33 kPa, x1 = 0.5004): 0.725 ± 0.017 mPa·s | viscosity (313 K, 101.33 kPa, x1 = 0.6): 0.9609 ± 0.021 mPa·s | viscosity (313 K, 101.33 kPa, x1 = 0.6983): 1.287 ± 0.027 mPa·s | viscosity (313 K, 101.33 kPa, x1 = 0.7965): 1.673 ± 0.036 mPa·s | viscosity (313 K, 101.33 kPa, x1 = 0.8984): 2.185 ± 0.05 mPa·s | viscosity (313.15 K, 100 kPa, x1 = 0.0277): 0.2857 ± 0.005 mPa·s | viscosity (313.15 K, 100 kPa, x1 = 0.05): 0.2883 ± 0.005 mPa·s | viscosity (313.15 K, 100 kPa, x1 = 0.1): 0.3109 ± 0.0051 mPa·s | viscosity (313.15 K, 100 kPa, x1 = 0.1976): 0.3694 ± 0.0055 mPa·s | viscosity (313.15 K, 100 kPa, x1 = 0.2999): 0.4503 ± 0.006 mPa·s | viscosity (313.15 K, 100 kPa, x1 = 0.3999): 0.555 ± 0.0069 mPa·s | viscosity (313.15 K, 100 kPa, x1 = 0.5): 0.7462 ± 0.0086 mPa·s | viscosity (313.15 K, 100 kPa, x1 = 0.6002): 0.9846 ± 0.011 mPa·s | viscosity (313.15 K, 100 kPa, x1 = 0.7): 1.272 ± 0.014 mPa·s | viscosity (313.15 K, 100 kPa, x1 = 0.8): 1.644 ± 0.018 mPa·s | viscosity (313.15 K, 100 kPa, x1 = 0.9096): 2.251 ± 0.026 mPa·s | viscosity (313.15 K, 101.33 kPa, x2 = 0.0954): 2.219 ± 0.02 mPa·s | viscosity (313.15 K, 101.33 kPa, x2 = 0.1918): 1.71 ± 0.016 mPa·s | viscosity (313.15 K, 101.33 kPa, x2 = 0.2892): 1.295 ± 0.012 mPa·s | viscosity (313.15 K, 101.33 kPa, x2 = 0.3876): 0.9896 ± 0.0095 mPa·s | viscosity (313.15 K, 101.33 kPa, x2 = 0.487): 0.7581 ± 0.0075 mPa·s | viscosity (313.15 K, 101.33 kPa, x2 = 0.5874): 0.5894 ± 0.006 mPa·s | viscosity (313.15 K, 101.33 kPa, x2 = 0.689): 0.4749 ± 0.005 mPa·s | viscosity (313.15 K, 101.33 kPa, x2 = 0.7915): 0.3791 ± 0.0041 mPa·s | viscosity (313.15 K, 101.33 kPa, x2 = 0.8952): 0.3285 ± 0.0037 mPa·s | viscosity (318.15 K, 100 kPa, x1 = 0.0277): 0.2746 ± 0.0049 mPa·s | viscosity (318.15 K, 100 kPa, x1 = 0.05): 0.2766 ± 0.005 mPa·s | viscosity (318.15 K, 100 kPa, x1 = 0.1): 0.297 ± 0.0051 mPa·s | viscosity (318.15 K, 100 kPa, x1 = 0.1976): 0.3511 ± 0.0054 mPa·s | viscosity (318.15 K, 100 kPa, x1 = 0.2999): 0.4266 ± 0.0059 mPa·s | viscosity (318.15 K, 100 kPa, x1 = 0.3999): 0.5178 ± 0.0066 mPa·s | viscosity (318.15 K, 100 kPa, x1 = 0.5): 0.6859 ± 0.0081 mPa·s | viscosity (318.15 K, 100 kPa, x1 = 0.6002): 0.8985 ± 0.01 mPa·s | viscosity (318.15 K, 100 kPa, x1 = 0.7): 1.155 ± 0.013 mPa·s | viscosity (318.15 K, 100 kPa, x1 = 0.8): 1.48 ± 0.017 mPa·s | viscosity (318.15 K, 100 kPa, x1 = 0.9096): 1.987 ± 0.023 mPa·s | viscosity (323 K, 101.33 kPa, x1 = 0.0995): 0.2787 ± 0.012 mPa·s | viscosity (323 K, 101.33 kPa, x1 = 0.1996): 0.3303 ± 0.013 mPa·s | viscosity (323 K, 101.33 kPa, x1 = 0.2995): 0.4051 ± 0.013 mPa·s | viscosity (323 K, 101.33 kPa, x1 = 0.4012): 0.5023 ± 0.014 mPa·s | viscosity (323 K, 101.33 kPa, x1 = 0.5004): 0.6113 ± 0.015 mPa·s | viscosity (323 K, 101.33 kPa, x1 = 0.6): 0.7992 ± 0.018 mPa·s | viscosity (323 K, 101.33 kPa, x1 = 0.6983): 1.049 ± 0.022 mPa·s | viscosity (323 K, 101.33 kPa, x1 = 0.7965): 1.34 ± 0.027 mPa·s | viscosity (323 K, 101.33 kPa, x1 = 0.8984): 1.721 ± 0.036 mPa·s | viscosity (323.15 K, 100 kPa, x2 = 0.25): 1.211 ± 0.069 mPa·s | viscosity (323.15 K, 101.33 kPa, x2 = 0.0954): 1.682 ± 0.015 mPa·s | viscosity (323.15 K, 101.33 kPa, x2 = 0.1918): 1.32 ± 0.012 mPa·s | viscosity (323.15 K, 101.33 kPa, x2 = 0.2892): 1.02 ± 0.01 mPa·s | viscosity (323.15 K, 101.33 kPa, x2 = 0.3876): 0.8098 ± 0.0079 mPa·s | viscosity (323.15 K, 101.33 kPa, x2 = 0.487): 0.6263 ± 0.0063 mPa·s | viscosity (323.15 K, 101.33 kPa, x2 = 0.5874): 0.5103 ± 0.0053 mPa·s | viscosity (323.15 K, 101.33 kPa, x2 = 0.689): 0.404 ± 0.0043 mPa·s | viscosity (323.15 K, 101.33 kPa, x2 = 0.7915): 0.3396 ± 0.0038 mPa·s | viscosity (323.15 K, 101.33 kPa, x2 = 0.8952): 0.2844 ± 0.0033 mPa·s
